Results published in ChEMBL document CHEMBL1136343, “Naringenin derivatives as anti-atherogenic agents” (Bioorg Med Chem Lett, 2003).

Columns and labels:
Format in all cases: functional, organism-based
Oryctolagus cuniculus [1] = experiment: Plasma HDL cholesterol level was analyzed after administration of 0.1%, wt/wt diet in high cholesterol-fed rabbits after 8 weeks
Oryctolagus cuniculus [2] = experiment: Plasma HDL cholesterol level was analyzed after administration of 0.1%, wt/wt diet in high cholesterol-fed rabbits at 0 weeks
Oryctolagus cuniculus [3] = experiment: Plasma triglyceride level was analyzed after administration of 0.1%, wt/wt diet in high cholesterol-fed rabbits after 0 weeks
Oryctolagus cuniculus [4] = experiment: Plasma triglyceride level was analyzed after administration of 0.1%, wt/wt diet in high cholesterol-fed rabbits after 8 weeks
Oryctolagus cuniculus [5] = experiment: Total plasma cholesterol was analyzed after administration of 0.1%, wt/wt diet in high cholesterol-fed rabbits after 8 weeks
Oryctolagus cuniculus [6] = experiment: Total plasma cholesterol was analyzed after administration of 0.1%, wt/wt diet in high cholesterol-fed rabbits at 0 weeks

CCCCCCCC/C=C/CCCCCCCC(=O)Oc1cc(O)c2c(c1)OC(c1ccc(O)cc1)CC2=O (configuration not stated)
Plasma lipid level (Oryctolagus cuniculus [1]): 78 mg/dL
Plasma lipid level (Oryctolagus cuniculus [2]): 31 mg/dL
Plasma lipid level (Oryctolagus cuniculus [3]): 51 mg/dL
Plasma lipid level (Oryctolagus cuniculus [4]): 105 mg/dL
Plasma lipid level (Oryctolagus cuniculus [5]): 1040 mg/dL
Plasma lipid level (Oryctolagus cuniculus [6]): 51 mg/dL

CCCCCCCCCCCCCCCCC(=O)Oc1cc(O)c2c(c1)OC(c1ccc(O)cc1)CC2=O (configuration not stated)
Plasma lipid level (Oryctolagus cuniculus [1]): 93 mg/dL
Plasma lipid level (Oryctolagus cuniculus [2]): 34 mg/dL
Plasma lipid level (Oryctolagus cuniculus [3]): 50 mg/dL
Plasma lipid level (Oryctolagus cuniculus [4]): 85 mg/dL
Plasma lipid level (Oryctolagus cuniculus [5]): 1060 mg/dL
Plasma lipid level (Oryctolagus cuniculus [6]): 53 mg/dL
